The target in one assay is T1, Adenosine receptor A1 (Homo sapiens, UniProt P30542).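 Note: radioligand binding assay at the adenosine A1 receptor, with DPCPX serving as the labelled ligand; in other assays of this panel Not Active means under 50% inhibition at 10 µM.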
T1 sequence (P30542 whole entry): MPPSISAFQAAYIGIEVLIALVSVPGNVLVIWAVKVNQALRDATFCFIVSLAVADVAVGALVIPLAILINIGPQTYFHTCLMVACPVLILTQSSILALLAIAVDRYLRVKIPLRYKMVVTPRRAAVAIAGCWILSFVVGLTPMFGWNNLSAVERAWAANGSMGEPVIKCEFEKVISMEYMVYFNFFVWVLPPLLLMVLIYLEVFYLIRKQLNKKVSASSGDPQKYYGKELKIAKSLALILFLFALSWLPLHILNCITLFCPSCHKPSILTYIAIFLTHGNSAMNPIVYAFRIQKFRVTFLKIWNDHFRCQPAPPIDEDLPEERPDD
Format: cell membranes, CHO, Membrane.

The target of assay [1] is T2, Muscarinic acetylcholine receptor M4 (Homo sapiens, UniProt P08173). Note: in other assays of this panel Not Active means under 50% inhibition at 10 µM.
T2 sequence (P08173 whole entry): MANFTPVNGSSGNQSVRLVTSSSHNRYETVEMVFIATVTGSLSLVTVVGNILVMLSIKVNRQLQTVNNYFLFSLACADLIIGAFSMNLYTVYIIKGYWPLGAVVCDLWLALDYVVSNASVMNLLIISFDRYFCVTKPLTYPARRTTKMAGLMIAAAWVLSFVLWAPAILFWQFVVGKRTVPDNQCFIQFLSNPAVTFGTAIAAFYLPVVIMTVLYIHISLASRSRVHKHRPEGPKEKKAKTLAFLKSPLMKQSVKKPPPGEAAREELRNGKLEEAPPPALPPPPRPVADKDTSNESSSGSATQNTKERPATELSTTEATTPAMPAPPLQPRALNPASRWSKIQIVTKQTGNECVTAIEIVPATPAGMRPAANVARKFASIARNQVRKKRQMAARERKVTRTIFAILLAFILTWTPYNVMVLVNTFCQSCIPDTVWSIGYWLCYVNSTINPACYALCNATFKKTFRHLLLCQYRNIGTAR
Format: cell membranes, CHO-K1, Membrane.

For a further assay, the target named is T3, Calcitonin receptor (Homo sapiens, UniProt P30988). Note: in other assays of this panel Not Active means under 50% inhibition at 10 µM.
T3 sequence (P30988 whole entry): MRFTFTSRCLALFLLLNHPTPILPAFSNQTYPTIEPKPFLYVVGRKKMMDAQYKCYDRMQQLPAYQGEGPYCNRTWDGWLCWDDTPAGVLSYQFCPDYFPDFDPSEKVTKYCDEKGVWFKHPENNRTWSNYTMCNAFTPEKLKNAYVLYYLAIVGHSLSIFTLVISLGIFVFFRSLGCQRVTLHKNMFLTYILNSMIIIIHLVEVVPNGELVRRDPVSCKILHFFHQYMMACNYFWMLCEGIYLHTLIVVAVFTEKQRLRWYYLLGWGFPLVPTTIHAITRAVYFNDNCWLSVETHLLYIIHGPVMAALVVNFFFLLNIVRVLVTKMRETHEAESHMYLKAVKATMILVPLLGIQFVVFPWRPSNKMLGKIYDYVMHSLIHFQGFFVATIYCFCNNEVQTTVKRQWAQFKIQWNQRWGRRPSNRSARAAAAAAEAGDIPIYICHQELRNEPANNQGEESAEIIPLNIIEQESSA
Format: cell membranes, Membrane. The following applies: t47d.

For a further assay, the target named is Carbonic anhydrase 2 (Homo sapiens, UniProt P00918). Kind of assay: DRUGMATRIX: Carbonic Anhydrase II enzyme inhibition (substrate: 4-Nitrophenyl acetate (4-NPA)). Format: tissue-based, Erythrocyte. The conditions noted are these: erythrocyte; Not Active = under 50% inhibition at 10 µM.
For assay [2], the target named is C-C chemokine receptor type 5 (Homo sapiens, UniProt P51681). The assay is classed as cell membranes, HEK293, Membrane. The conditions noted are these: hek293. Note: in other assays of this panel Not Active means under 50% inhibition at 10 µM.
For a further assay, the target named is T4, Androgen receptor (Rattus norvegicus, UniProt P15207). Note: in other assays of this panel Not Active means under 50% inhibition at 10 µM.
T4 sequence (P15207 whole entry): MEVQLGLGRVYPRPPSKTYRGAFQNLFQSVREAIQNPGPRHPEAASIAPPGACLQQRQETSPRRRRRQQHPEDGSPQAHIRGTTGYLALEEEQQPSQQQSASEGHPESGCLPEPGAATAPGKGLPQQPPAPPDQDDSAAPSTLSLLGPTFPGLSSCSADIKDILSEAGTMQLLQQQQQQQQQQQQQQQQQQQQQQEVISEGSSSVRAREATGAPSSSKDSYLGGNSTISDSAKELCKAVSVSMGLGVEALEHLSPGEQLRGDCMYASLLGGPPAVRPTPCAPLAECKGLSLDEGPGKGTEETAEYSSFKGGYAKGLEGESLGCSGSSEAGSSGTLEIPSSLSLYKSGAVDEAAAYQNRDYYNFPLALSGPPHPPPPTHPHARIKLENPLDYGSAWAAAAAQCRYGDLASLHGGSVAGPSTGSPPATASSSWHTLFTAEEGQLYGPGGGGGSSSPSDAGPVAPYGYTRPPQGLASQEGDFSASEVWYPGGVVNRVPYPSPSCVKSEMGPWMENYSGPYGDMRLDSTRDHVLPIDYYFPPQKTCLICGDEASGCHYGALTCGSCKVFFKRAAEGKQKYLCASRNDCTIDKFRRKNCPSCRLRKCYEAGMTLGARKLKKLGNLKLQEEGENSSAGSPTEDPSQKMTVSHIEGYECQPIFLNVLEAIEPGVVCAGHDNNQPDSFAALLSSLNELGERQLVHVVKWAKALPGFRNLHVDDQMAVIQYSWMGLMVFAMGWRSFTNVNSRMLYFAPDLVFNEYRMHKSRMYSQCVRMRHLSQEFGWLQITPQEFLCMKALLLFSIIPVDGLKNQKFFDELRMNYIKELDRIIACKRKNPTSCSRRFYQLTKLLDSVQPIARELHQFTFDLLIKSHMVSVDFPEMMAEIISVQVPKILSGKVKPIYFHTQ

For assay [3], the target named is Mitogen-activated protein kinase 1 (Homo sapiens, UniProt P28482). Kind of assay: DRUGMATRIX: Protein Serine/Threonine Kinase, ERK2 enzyme inhibition (substrate: Myelin Basic Protein). More on the design: species or system Escherichia coli. The conditions noted are these: Not Active = under 50% inhibition at 10 µM.
Chain of Mitogen-activated protein kinase 1 (P28482 whole entry): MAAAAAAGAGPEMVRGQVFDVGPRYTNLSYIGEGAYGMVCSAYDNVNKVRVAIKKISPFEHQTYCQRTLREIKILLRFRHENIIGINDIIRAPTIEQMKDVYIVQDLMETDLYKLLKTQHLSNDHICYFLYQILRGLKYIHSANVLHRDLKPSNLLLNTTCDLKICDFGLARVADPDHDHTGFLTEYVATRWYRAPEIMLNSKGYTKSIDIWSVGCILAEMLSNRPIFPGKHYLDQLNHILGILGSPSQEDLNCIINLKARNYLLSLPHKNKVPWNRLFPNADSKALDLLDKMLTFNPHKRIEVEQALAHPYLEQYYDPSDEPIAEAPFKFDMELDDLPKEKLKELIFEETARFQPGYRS

Chain of C-C chemokine receptor type 5 (P51681 whole entry): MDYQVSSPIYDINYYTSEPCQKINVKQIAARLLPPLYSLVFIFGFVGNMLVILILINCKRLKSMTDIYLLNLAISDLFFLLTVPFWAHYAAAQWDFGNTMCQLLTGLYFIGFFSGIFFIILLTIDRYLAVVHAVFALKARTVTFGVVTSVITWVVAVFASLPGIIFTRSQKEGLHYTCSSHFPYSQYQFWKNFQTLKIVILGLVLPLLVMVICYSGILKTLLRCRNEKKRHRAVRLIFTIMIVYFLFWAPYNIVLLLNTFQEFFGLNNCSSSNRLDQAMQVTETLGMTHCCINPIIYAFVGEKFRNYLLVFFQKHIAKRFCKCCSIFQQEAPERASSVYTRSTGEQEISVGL

As to `CC(N)Cc1c[nH]c2ccc(OCc3cccs3)cc12` (stereo unspecified) [BW-723C86], the IC50 result (on Adenosine receptor A1 (cho); in assay [1] (cho-k1); on Calcitonin receptor; at Carbonic anhydrase 2; in assay [2]; on Androgen receptor) was “Not Active” throughout. Also, in assay [3], the IC50 entry is “Not Active”.

POVIDONE: the IC50 result (on Adenosine receptor A1 (cho); in assay [1] (cho-k1); on Calcitonin receptor; on Carbonic anhydrase 2; in assay [2]; against Androgen receptor) was “Not Active” throughout. The IC50 entry in assay [3] is “Not Active”. Further, the inhibition constant (Ki) result (on Adenosine receptor A1 (cho); in assay [1] (cho-k1); at Calcitonin receptor; at Carbonic anhydrase 2; in assay [2]; on Androgen receptor) was “Not Active” throughout. Moreover, the Ki entry in assay [3] was “Not Active”.

Take `CCO` [ALCOHOL]: the IC50 result (on Adenosine receptor A1 (cho); in assay [1] (cho-k1); on Calcitonin receptor; against Carbonic anhydrase 2; in assay [2]; against Androgen receptor) was “Not Active” in each case. In assay [3], the IC50 entry is reported as “Not Active”.

For the compound CHROMIC CHLORIDE, the IC50 entry (on Adenosine receptor A1 (cho); in assay [1] (cho-k1); on Calcitonin receptor; against Carbonic anhydrase 2; in assay [2]; against Androgen receptor) was “Not Active” throughout. Besides, the half-inhibitory concentration (IC50) result in assay [3] was “Not Active”. Moreover, the Ki entry (on Adenosine receptor A1 (cho); in assay [1] (cho-k1); at Calcitonin receptor; at Carbonic anhydrase 2; in assay [2]; at Androgen receptor) was “Not Active” throughout. The Ki entry in assay [3] was “Not Active”.

On to `COc1cc([C@@H]2c3cc4c(cc3[C@H](O)[C@H]3COC(=O)[C@H]23)OCO4)cc(OC)c1OC` [PODOFILOX], for which the half-inhibitory concentration (IC50) result (at Adenosine receptor A1 (cho); in assay [1] (cho-k1); at Calcitonin receptor; against Carbonic anhydrase 2; in assay [2]; against Androgen receptor) was “Not Active” each time. Besides, the IC50 entry in assay [3] was “Not Active”.

For `OC[C@H]1OC2C3[C@@H](CO)OC(O[C@H]4[C@H](O)[C@@H](O)[C@@H](O[C@H]5[C@H](O)[C@@H](O)[C@@H](O[C@H]6[C@H](O)[C@@H](O)[C@@H](O[C@H]7[C@H](O)[C@@H](O)[C@@H](O[C@H]8[C@H](O)[C@@H](O)[C@@H](O[C@H]9[C@H](O)[C@@H](O)C(OC1[C@H](O)[C@H]2O)O[C@@H]9CO)O[C@@H]8CO)O[C@@H]7CO)O[C@@H]6CO)O[C@@H]5CO)O[C@@H]4CO)[C@H](O)[C@H]3O`, the IC50 entry (at Adenosine receptor A1 (cho); in assay [1] (cho-k1); on Calcitonin receptor; on Carbonic anhydrase 2; in assay [2]; at Androgen receptor) was “Not Active” in each case. The IC50 result in assay [3] is reported as “Not Active”.

Consider `Nc1ccc(C(=O)O)c(O)c1` [AMINOSALICYLIC ACID], for which the half-inhibitory concentration (IC50) result (against Adenosine receptor A1 (cho); in assay [1] (cho-k1); on Calcitonin receptor; at Carbonic anhydrase 2; in assay [2]; on Androgen receptor) was “Not Active” in each case. For the same compound, the IC50 entry in assay [3] was “Not Active”.

On to `CC(C)Cn1cnc2c(N)nc3ccccc3c21` [IMIQUIMOD], for which the IC50 result (against Adenosine receptor A1 (cho); in assay [1] (cho-k1); at Calcitonin receptor; on Carbonic anhydrase 2; in assay [2]; on Androgen receptor) was “Not Active” each time. In addition, the IC50 result in assay [3] was “Not Active”.

For the compound `COC(=O)C[C@](O)(CCC(C)(C)O)C(=O)O[C@@H]1C(OC)=C[C@]23CCCN2CCc2cc4c(cc2[C@H]13)OCO4` [HARRINGTONINE], the IC50 result (on Adenosine receptor A1 (cho); in assay [1] (cho-k1); on Calcitonin receptor; at Carbonic anhydrase 2; in assay [2]; against Androgen receptor) was “Not Active” each time. Further, in assay [3], the IC50 entry is “Not Active”.

`CN(CCOc1ccc(C[C@H](Nc2ccccc2C(=O)c2ccccc2)C(=O)O)cc1)c1ccccn1`: the IC50 at Adenosine receptor A1 (read-out: IC50) was 15 µM; in assay [1] (cho-k1), “Not Active”; on Calcitonin receptor, “Not Active”; against Carbonic anhydrase 2 it was “Not Active”; in assay [2], “Not Active”; against Androgen receptor it was “Not Active”. Also, in assay [3], the IC50 result is listed as “Not Active”. On Adenosine receptor A1 (read-out: Ki), the Ki is 8.73 µM.

As for `CC(=O)[C@]1(O)Cc2c(O)c3c(c(O)c2[C@@H](O[C@H]2C[C@H](N)[C@H](O)[C@H](C)O2)C1)C(=O)c1ccccc1C3=O` [IDARUBICIN], the IC50 entry (on Adenosine receptor A1 (cho); in assay [1] (cho-k1); at Calcitonin receptor; against Carbonic anhydrase 2; in assay [2]; against Androgen receptor) was “Not Active” throughout. Further, the IC50 entry in assay [3] is recorded as “Not Active”.

Take `CCN1CCN(c2cc3c(cc2F)c(=O)c(C(=O)O)cn3C2CC2)CC1` [ENROFLOXACIN]: the IC50 entry (on Adenosine receptor A1 (cho); in assay [1] (cho-k1); on Calcitonin receptor; against Carbonic anhydrase 2; in assay [2]; against Androgen receptor) was “Not Active” each time. In assay [3], the IC50 result is given as “Not Active”.

As for `Cc1cc(C(C)(C)C)c(O)c(C)c1CC1=NCCN1` [OXYMETAZOLINE], the IC50 result against Adenosine receptor A1 (cho) is “Not Active”; in assay [1] (read-out: IC50), 3.26 µM; at Calcitonin receptor it was “Not Active”; against Carbonic anhydrase 2 it was “Not Active”; in assay [2], “Not Active”; at Androgen receptor, “Not Active”. Moreover, the IC50 entry in assay [3] was “Not Active”. Moreover, the Ki in assay [1] (read-out: Ki) stood at 0.455 µM.

`C[N+](C)(C)CCOP(=O)([O-])OC[C@H](O)CO`: the IC50 entry (against Adenosine receptor A1 (cho); in assay [1] (cho-k1); at Calcitonin receptor; on Carbonic anhydrase 2; in assay [2]; against Androgen receptor) was “Not Active” each time. Also, in assay [3], the IC50 entry was “Not Active”.

For the compound `c1ccc(Cn2ccnc2)cc1`, the IC50 entry (on Adenosine receptor A1 (cho); in assay [1] (cho-k1); at Calcitonin receptor; against Carbonic anhydrase 2; in assay [2]; at Androgen receptor) was “Not Active” in each case. Besides, the 50% inhibitory concentration (IC50) result in assay [3] is “Not Active”.

In general, IC50 refers to the concentration needed to halve the response being measured. Broadly, the Ki is the dissociation constant of the complex between target and ligand, obtained from inhibition or displacement.

The values above are taken from ChEMBL document CHEMBL1909046, “DrugMatrix in vitro pharmacology data”.
